Measured values reported in ChEMBL document CHEMBL1122073, “Structure-activity relationships for 2-substituted imidazoles as alpha 2-adrenoceptor antagonists” (J Med Chem, 1982).
Counter-ions that a name gives are not always drawn.

Columns and labels:
[1] = target: T1, Adrenergic receptor alpha-1 (Rattus norvegicus, UniProt P15823+P23944+P43140); assay: Antagonistic activity against Alpha-1 adrenergic receptor in the epididymal portion of the rat vas deferens; assay type: functional, tissue-based
T1 sequence (P15823 whole entry): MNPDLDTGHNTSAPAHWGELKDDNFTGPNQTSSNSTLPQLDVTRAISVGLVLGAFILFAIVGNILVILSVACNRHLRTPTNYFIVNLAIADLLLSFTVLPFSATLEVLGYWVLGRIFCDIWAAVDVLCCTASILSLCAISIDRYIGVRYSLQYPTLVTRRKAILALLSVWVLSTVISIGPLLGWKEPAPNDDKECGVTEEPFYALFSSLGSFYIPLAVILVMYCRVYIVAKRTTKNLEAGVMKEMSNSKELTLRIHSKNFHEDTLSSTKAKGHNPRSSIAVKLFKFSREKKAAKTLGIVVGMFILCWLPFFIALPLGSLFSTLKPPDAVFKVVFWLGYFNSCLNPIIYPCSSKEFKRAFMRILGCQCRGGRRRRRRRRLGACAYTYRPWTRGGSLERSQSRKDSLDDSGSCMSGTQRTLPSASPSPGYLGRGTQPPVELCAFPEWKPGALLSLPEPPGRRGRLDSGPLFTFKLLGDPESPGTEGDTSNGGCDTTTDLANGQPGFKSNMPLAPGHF
T1 sequence (P23944 whole entry): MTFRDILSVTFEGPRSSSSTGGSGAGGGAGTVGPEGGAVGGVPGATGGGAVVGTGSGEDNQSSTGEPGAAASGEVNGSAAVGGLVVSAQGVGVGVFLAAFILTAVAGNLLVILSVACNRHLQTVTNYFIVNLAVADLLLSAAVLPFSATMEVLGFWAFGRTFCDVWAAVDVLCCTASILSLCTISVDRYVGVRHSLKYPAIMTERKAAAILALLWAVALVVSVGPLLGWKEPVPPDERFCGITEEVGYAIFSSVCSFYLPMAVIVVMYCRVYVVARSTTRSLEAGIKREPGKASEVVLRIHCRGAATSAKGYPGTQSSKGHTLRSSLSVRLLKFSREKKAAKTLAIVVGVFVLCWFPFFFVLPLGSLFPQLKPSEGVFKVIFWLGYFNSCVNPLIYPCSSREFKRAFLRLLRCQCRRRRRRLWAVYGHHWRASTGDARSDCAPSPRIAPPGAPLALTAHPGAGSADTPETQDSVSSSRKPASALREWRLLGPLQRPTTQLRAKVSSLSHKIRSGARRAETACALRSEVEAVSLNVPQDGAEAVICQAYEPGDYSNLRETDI
T1 sequence (P43140 whole entry): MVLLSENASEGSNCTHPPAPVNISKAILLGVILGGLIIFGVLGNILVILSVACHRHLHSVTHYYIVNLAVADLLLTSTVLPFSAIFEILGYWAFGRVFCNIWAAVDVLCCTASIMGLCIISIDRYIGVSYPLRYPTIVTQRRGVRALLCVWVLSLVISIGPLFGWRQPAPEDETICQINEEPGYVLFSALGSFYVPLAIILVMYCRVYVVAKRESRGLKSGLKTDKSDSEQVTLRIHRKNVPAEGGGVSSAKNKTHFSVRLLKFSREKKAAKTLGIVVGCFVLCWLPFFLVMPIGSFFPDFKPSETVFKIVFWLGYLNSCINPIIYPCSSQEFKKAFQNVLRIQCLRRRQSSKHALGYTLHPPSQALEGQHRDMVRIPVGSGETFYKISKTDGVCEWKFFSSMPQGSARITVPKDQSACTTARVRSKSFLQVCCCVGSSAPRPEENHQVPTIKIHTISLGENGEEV

[2] = target: Adrenergic receptor alpha (Rattus norvegicus) (UniProt P15823+P23944+P43140+P22086+P19328+P22909); assay: Selectivity ratio is the […] of alfa2 and alfa1 adrenoceptors; assay type: protein assay
[3] = target: T2, Adrenergic receptor alpha-2 (Rattus norvegicus, UniProt P22086+P19328+P22909); assay: Antagonistic activity against Alpha-2 adrenergic receptor in the prostatic portion of the rat vas deferens; assay type: functional, tissue-based
T2 sequence (P22086 whole entry): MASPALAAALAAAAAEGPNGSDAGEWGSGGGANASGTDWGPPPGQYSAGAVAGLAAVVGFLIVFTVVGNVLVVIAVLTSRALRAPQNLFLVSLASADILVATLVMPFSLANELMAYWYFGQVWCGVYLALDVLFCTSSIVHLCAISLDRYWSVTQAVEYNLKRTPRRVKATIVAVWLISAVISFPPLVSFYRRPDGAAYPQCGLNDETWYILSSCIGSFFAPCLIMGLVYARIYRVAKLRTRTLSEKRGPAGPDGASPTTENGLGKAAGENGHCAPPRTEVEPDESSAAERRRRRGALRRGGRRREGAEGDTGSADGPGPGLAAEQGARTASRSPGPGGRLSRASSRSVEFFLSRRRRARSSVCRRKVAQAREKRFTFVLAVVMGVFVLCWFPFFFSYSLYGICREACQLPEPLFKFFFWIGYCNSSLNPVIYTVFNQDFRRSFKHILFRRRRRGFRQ
T2 sequence (P19328 whole entry): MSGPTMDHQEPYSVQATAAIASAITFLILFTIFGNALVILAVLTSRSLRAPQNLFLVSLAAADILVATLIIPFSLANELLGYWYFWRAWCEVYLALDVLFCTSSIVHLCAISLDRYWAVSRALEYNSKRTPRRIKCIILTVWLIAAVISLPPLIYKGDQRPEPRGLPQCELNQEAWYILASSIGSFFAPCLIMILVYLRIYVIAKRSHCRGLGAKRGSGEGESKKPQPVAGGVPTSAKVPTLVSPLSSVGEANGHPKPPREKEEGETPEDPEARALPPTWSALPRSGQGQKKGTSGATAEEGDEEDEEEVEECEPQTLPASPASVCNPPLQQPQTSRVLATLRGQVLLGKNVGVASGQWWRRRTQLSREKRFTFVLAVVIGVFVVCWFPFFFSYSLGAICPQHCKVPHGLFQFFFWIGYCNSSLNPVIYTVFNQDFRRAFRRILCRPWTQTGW
T2 sequence (P22909 whole entry): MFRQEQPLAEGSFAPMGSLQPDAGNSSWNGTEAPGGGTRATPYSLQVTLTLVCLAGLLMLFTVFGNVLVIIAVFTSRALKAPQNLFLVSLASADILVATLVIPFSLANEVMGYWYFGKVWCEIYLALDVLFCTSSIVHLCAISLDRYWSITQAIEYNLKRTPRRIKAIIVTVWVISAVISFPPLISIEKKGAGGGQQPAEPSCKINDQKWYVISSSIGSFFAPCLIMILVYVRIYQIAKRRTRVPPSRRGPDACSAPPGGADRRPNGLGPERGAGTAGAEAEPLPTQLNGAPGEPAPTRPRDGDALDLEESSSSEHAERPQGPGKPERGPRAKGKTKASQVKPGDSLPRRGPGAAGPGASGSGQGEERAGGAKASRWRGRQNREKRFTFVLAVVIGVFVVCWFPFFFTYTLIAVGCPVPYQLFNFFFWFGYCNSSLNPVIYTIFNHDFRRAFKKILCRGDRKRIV

[4] = Tested for the 1-Octanol distribution coefficient determined by HPLC method (pH 7.4); assay type: physicochemical; settings: 1-octanol/aqueous phase
[5] = target: T1, Adrenergic receptor alpha-1; assay: […] activity against Alpha-1 adrenergic receptor in the epididymal portion of the rat vas deferens; assay type: functional, tissue-based

| pA2 [1] | Selectivity ratio [2] | pA2 [3] | logD [4] | pA2 [5] | Structure (SMILES) |
| --- | --- | --- | --- | --- | --- |
| 5 | 50.1 | 6.7 |  |  | CCN1CCN=C1CC1COc2ccccc2O1.Cl (stereo unspecified) |
|  |  | 7.4 |  |  | c1ccc2c(c1)OCC(CN1CCCCC1)O2 (stereo unspecified) [PIPEROXAN] |
| 4.2 | 102 |  | 1.99 |  | Cl.c1ccc2c(c1)OCC(CCc1ncc[nH]1)O2 (stereo unspecified) |
| 5 | 100 | 7 | 0.28 |  | Cl.c1ccc2c(c1)OCC(CC1=NCCN1)O2 (stereo unspecified) |
|  | 38 | 6.58 |  | 5 | COc1cccc(Cn2ccnc2CC2COc3ccccc3O2)c1.Cl (stereo unspecified) |
|  | 69.2 | 6.84 | > 2.5 | 5 | Cl.c1ccc(Cn2ccnc2CC2COc3ccccc3O2)cc1 (stereo unspecified) |
| < 4 |  | 6.71 | 2.31 |  | CCn1ccnc1CC1COc2ccccc2O1.Cl (stereo unspecified) [IMILOXAN HYDROCHLORIDE] |
|  |  |  | 3.29 |  | c1ccc2c(c1)OCC(Cc1nc3ccccc3[nH]1)O2 (stereo unspecified) |
| < 4.5 | > 219 | 6.84 |  |  | CCCCn1ccnc1CC1COc2ccccc2O1.Cl (stereo unspecified) |
| < 4 | > 39.8 | 5.6 | 1.76 |  | Cl.c1ccc2c(c1)OCC(c1ncc[nH]1)O2 (stereo unspecified) |
|  |  |  | 2.4 |  | CCCn1ccnc1CC1COc2ccccc2O1 (stereo unspecified) |
| < 5 | > 3.2 | 5.51 | > 2.5 |  | Cl.c1ccc(-c2c[nH]c(CC3COc4ccccc4O3)n2)cc1 (stereo unspecified) |
|  |  |  | 1.92 |  | c1ccc2c(c1)OCC(Cc1ncc[nH]1)O2 (stereo unspecified) |
| < 5 | > 2.5 | 5.4 |  |  | Cl.N=C(N)CC1COc2ccccc2O1 (stereo unspecified) |
| 4.33 | 74.1 |  | 1.93 |  | Cl.Cn1ccnc1CC1COc2ccccc2O1 (stereo unspecified) |
| < 5 | > 3.2 | 5.5 |  |  | NCC1(c2ccccc2)OCCO1 |
| < 5 | > 10 | 6 |  |  | Clc1cccc(Cl)c1Cn1ccnc1CC1COc2ccccc2O1 (stereo unspecified) |
| 4.3 | 182 | 6.56 |  |  | CC(C)n1ccnc1CC1COc2ccccc2O1 (stereo unspecified) |

| Structure (SMILES) | pA2 [1] | Selectivity ratio [2] | pA2 [3] | logD [4] | pA2 [5] |
| --- | --- | --- | --- | --- | --- |
| c1ccc2c(c1)OCC(C1=NCCN1)O2 (stereo unspecified) [IDAZOXAN HYDROCHLORIDE] |  |  |  | 0.33 |  |
